For 14 molecules, IC50 results are on record in patent US12011444B2, “N-substituted indole derivatives as PGE2 receptor modulators” (Idorsia Pharmaceuticals Ltd, priority 2015, dated 2024).

Test [1] concerns the target PTRGER4 (EP4) (Homo sapiens (Human), UniProt P35408). Kind of test: hEP4 b-arrestin assay (PathHunter HEK 293 PTGER4 b-arrestin cells). The format is cell-based. An excerpt: (§1) The assay is using the PathHunter™ HEK 293 PTGER2 and PTGER4 b-arrestin cell lines from DiscoverX. The system is based on the Enzyme Fragment Complementation Technology. Two complementing fragments of the b-galactosidase enzyme are expressed within stably transfected cells. The larger portion of b-gal, termed EA for Enzyme Acceptor, is fused to the C-terminus of b-arrestin 2. The smaller fragment, termed ProLink™ tag, is fused to PTGER2 (EP2) or PTRGER4 (EP4) at the C-terminus. Upon activation, b-arrestin is recruited which forces the interaction of ProLink and EA, allowing complementation of the two fragments of b-gal and the formation of a functional enzyme which is capable of hydrolysing the substrate and generating a chemiluminescent signal.
(§2) 5000 cells per well of a 384 well plate (white with white bottom Greiner 781080) are seeded in 20 ul per well of GM. Plate is incubated at 37° C., 5% C02 for 24 hours.
Plate is pre-incubated 15 minutes at 37° C. Then five microliters of PGE2 (final conc. 20 nM) are transferred into the assay plate. Plate is incubated 120 minutes at 37° C.
Twelve μl of reagent are transferred to the assay plate and incubate for 1 hour at room temperature in the dark. Luminescence counts are read on a BMG Fluostar Optima reader according to manufacturer's instructions. For each compound concentration calculate of the percentage of activity compared to DMSO control value as average±STDEV.

The target in test [2] is PTGER2 (EP2) (Homo sapiens (Human), UniProt P43116). Kind of test: hEP2 b-arrestin assay (PathHunter HEK 293 PTGER2 b-arrestin cells). The class given is cell-based.
Description: as §1, §2
Plate is pre-incubated 15 minutes at 37° C. Then five microliters of PGE2 (final conc. 5 μM) are transferred into the assay plate. Plate is incubated 120 minutes at 37° C.
Twelve μl of reagent are transferred to the assay plate and incubate for 1 hour at room temperature in the dark. Luminescence counts are read on a BMG Fluostar Optima reader according to manufacturer's instructions. For each compound concentration calculate of the percentage of activity compared to DMSO control value as average±STDEV. (each concentration is measured in duplicate)

The mark [3] stands for this setting: antagonistic activity on hEP4, mean where measured multiple times.
The mark [4] stands for this setting: antagonistic activity on hEP2, mean where measured multiple times.
Where [5] appears, read: hEP4 b-arrestin assay (values without asterisk).
Setting [6] is: hEP2 b-arrestin assay (values without asterisk).

Each structure is given as a SMILES string.

PTGER2 (EP2), sequence (P43116 whole entry): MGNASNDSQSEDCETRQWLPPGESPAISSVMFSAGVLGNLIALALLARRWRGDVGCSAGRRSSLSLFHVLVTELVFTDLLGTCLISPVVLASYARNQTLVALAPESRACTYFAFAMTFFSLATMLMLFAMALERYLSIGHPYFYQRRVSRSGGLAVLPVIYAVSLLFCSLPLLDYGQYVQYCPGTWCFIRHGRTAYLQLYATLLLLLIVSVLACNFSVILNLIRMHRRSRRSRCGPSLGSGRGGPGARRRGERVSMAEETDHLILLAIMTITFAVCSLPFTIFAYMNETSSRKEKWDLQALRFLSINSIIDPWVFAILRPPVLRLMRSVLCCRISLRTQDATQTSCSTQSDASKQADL
PTRGER4 (EP4), sequence (P35408 whole entry, looked up, the tested form may be a part): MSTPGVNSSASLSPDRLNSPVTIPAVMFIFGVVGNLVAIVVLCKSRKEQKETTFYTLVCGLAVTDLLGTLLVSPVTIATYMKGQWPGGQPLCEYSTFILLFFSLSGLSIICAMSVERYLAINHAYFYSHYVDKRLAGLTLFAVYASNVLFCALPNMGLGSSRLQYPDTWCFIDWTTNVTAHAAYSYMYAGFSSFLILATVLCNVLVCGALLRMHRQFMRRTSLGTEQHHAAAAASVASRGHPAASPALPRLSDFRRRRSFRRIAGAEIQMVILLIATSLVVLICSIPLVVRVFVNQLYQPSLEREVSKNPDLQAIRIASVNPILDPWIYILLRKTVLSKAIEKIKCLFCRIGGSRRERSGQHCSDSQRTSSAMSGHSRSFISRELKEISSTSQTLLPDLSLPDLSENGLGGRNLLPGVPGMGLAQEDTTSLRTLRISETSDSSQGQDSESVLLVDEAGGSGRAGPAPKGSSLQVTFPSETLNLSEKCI

What is called IC50 is the point on the concentration scale where inhibition reaches its midpoint. On to `CCOc1cc(-c2cc(NCCn3c(C)cc4ccc(OC)cc43)ncn2)sc1C(=O)O` [compound 117, 3-Ethoxy-5-{6-[2-(6-methoxy-2-methyl-indol-1-yl)-ethylamino]-pyrimidin-4-yl}-thiophene-2-carboxylic acid], for which the results for the IC50 in test [1] (setting [3]) and in test [2] (setting [4]) were 114 nM and 1 nM, respectively.

As to `CCCc1cc(-c2cc(NCCn3c(C)cc4c(CC)ccc(F)c43)ncn2)ccc1C(=O)O` [compound 338], the IC50 worked out at 357 nM in test [1] (setting [3]) and 858 nM in test [2] (setting [4]).

Take `CCOc1cc(-c2cc(NCCn3c(C)cc4c(OC)ccc(F)c43)ncn2)sc1C(=O)NS(C)(=O)=O` [Example 1022, N-(3-Ethoxy-5-{6-[2-(7-fluoro-4-methoxy-2-methyl-indol-1-yl)-ethylamino]-pyrimidin-4-yl}-thiophene-2-carbonyl)-methanesulfonamide]: the IC50 in test [1] (setting [5]) turned out to be 18 nM; in test [2] (setting [6]), 4 nM.

With `CCOc1cc(-c2cc(NCCn3c(C#N)cc4c(C)c(F)c(F)cc43)ncn2)ccc1NCC(=O)O` [Example 895, (4-{6-[2-(2-Cyano-5,6-difluoro-4-methyl-indol-1-yl)-ethylamino]-pyrimidin-4-yl}-2-ethoxy-phenylamino)-acetic acid], the IC50 came to 66 nM in test [1] (setting [5]) and 20 nM in test [2] (setting [6]).

`COC(=O)c1ccc2cc(-c3cc(NCCn4c(C#N)cc5c(OC)ccc(F)c54)ncn3)[nH]c2c1` [Example 959, 2-{6-[2-(2-Cyano-7-fluoro-4-methoxy-indol-1-yl)-ethylamino]-pyrimidin-4-yl}-1H-indole-6-carboxylic acid methyl ester]: the concentration for half-maximal inhibition (IC50) in test [1] (setting [5]) was found to be 137 nM; in test [2] (setting [6]), 3 nM.

Consider `CNc1cc(-c2cc(NCCn3c(C)cc4c(C)ccc(F)c43)ncn2)ccc1C(=O)O` [compound 136, 4-{6-[2-(7-Fluoro-2,4-dimethyl-indol-1-yl)-ethylamino]-pyrimidin-4-yl}-2-methylamino-benzoic acid], for which the results for the IC50 in test [1] (setting [3]) and in test [2] (setting [4]) were 48 nM and 5 nM, respectively.

For `Cc1ccc(F)c2c1cc(C)n2CCNc1cc(-c2ccc3c(c2)CCN3)ncn1` [compound 11, [6-(2,3-Dihydro-1H-indol-5-yl)-pyrimidin-4-yl]-[2-(7-fluoro-2,4-dimethyl-indol-1-yl)-ethyl]-amine], the IC50 in test [1] (setting [3]) came to 124 nM; in test [2] (setting [4]), 20 nM.

As for `CCNc1cc(-c2cc(NCCn3c(C)cc4c(F)ccc(C)c43)ncn2)ccc1C(=O)O` [compound 246], the 50% inhibitory concentration (IC50) was 507 nM in test [1] (setting [3]) and 2 nM in test [2] (setting [4]).

For the molecule `Cc1ccc(F)c2c1cc(C)n2CCNc1cc(-c2cc(F)c(C(=O)O)s2)ncn1` [compound 47], the half-maximal inhibitory concentration (IC50) in test [1] (setting [3]) is 136 nM; in test [2] (setting [4]) it was 18 nM.

For `CCc1cc(-c2cc(NCCn3c(C)cc4c(C)cccc43)ncn2)ccc1C(=O)O` [compound 26, 4-{6-[2-(2,4-Dimethyl-indol-1-yl)-ethylamino]-pyrimidin-4-yl}-2-ethyl-benzoic acid], the figures for the IC50 in test [1] (setting [3]) and in test [2] (setting [4]) were 975 nM and 9 nM, respectively.

For the molecule `COc1ccc(Cl)c2c1cc(C)n2CCNc1cc(-c2ccc3c(C(=O)O)n[nH]c3c2)ncn1` [compound 388], the IC50 in test [1] (setting [3]) came to 963 nM; in test [2] (setting [4]), 34 nM.

Consider `CCOc1cc(-c2cc(NCCn3c(C)cc4c(OC)ccc(F)c43)ncn2)sc1NC(N)=O` [Example 1075, (3-Ethoxy-5-{6-[2-(7-fluoro-4-methoxy-2-methyl-indol-1-yl)-ethylamino]-pyrimidin-4-yl}-thiophen-2-yl)-urea], for which the IC50 in test [1] (setting [5]) is 49 nM; in test [2] (setting [6]), 7 nM.

Regarding `CCCc1cc(-c2cc(NCCn3c(C)cc4cc(C)cc(F)c43)ncn2)ccc1C(=O)O` [compound 267], the results for the 50% inhibitory concentration (IC50) in test [1] (setting [3]) and in test [2] (setting [4]) were 317 nM and 26 nM, respectively.

As to `Cc1ccc(F)c2c1cc(C#N)n2CCNc1cc(-c2cc(F)c(C(=O)O)s2)ncn1` [Example 851, 5-{6-[2-(2-Cyano-7-fluoro-4-methyl-indol-1-yl)-ethylamino]-pyrimidin-4-yl}-3-fluoro-thiophene-2-carboxylic acid], the IC50 in test [1] (setting [5]) was 28 nM; in test [2] (setting [6]) it was 18 nM.
